Experiments:
[1] = test system: collagen-induced arthritis; test: Murine model of collagen-induced arthritis; type: in vivo, DBA/1 LacJ male mice; parameters: Cumulative arthritis injury score (±sem): scale not given here
Method: DBA/1 LacJ male mice 6-8 wk (Jackson Laboratories; Bar Harbor, Me.) were immunized subcutaneously on day 0 and on day 21 with 100 μg bovine type 11 collagen in 0.1 mL RIBI Adjuvant System (RAS) with monophosphoryl lipid A(RIBI lmmunoChem Research; Hamilton, Mont.). In this model, disease onset occurs within one week after the second collagen injection.
When treated in a preventative mode, test compounds were administered daily beginning on day 0 through day 41.
In the established (i.e. therapeutic) mode, the administration of test compounds was initiated only after paw inflammation of an animal had achieved a score of 2 (as defined below), at which time, the animal was randomly assigned to a treatment group. Treatment continued daily for all four paws as described below.
Following the Day 21 booster, mice were regularly monitored for the development and severity of paw inflammation.
Clinical paw scores for all four paws were summed for each mouse and the mean ± standard deviation (SD) was calculated for each treatment group.
Histological scoring involved evaluating histologically and grading semi-quantitatively tibiotarsal joints of sacrificed mice, specifically examining the severity of inflammation, synovial hyperplasia, bone resorption, and cartilage erosion. Cumulative arthritis injury scores for each group were compared by the nonparametric Kruskal-Wallis analysis of variance.

DSS-induced colitis = test: Dextran sulfate sodium-induced murine model of inflammatory bowel disease; type: in vivo, Swiss-Webster mice; details: for Mean clinical score: colon, scale 0-3
Method: In this model, Swiss-Webster mice (8 weeks old, 5 animals per treatment group) were given 6% DSS in their drinking water for 7 consecutive days to induce intestinal inflammation. Test compounds were administered daily throughout the study. On day 9, animals were sacrificed and the colons were removed for clinical and histological evaluation.
Clinical scoring was determined by the gross clinical evaluation of the injury on a scale from 0 (normal) to 3 (severe) as detailed in Table 7.
For histological scoring, colon sections were graded as to the severity of crypt injury and the degree of inflammation. The crypt injury was scored as detailed in Table 8, wherein the crypt is part of the glandular make-up of the colon.
Tissue involvement was scored as detailed in Table 9. Any signs of crypt injury or inflammation, regardless of severity, constitute tissue involvement.
The injury histological score is defined as the product of the crypt injury grade and the tissue involvement grade. The scoring of severity of inflammation is detailed in Table 10.
The inflammation histological score is the product of the severity of inflammation grade and the extent of tissue involvement grade. Crypt injury and inflammatory scoring were performed on each colon section and a mean score and standard error were determined for each section. Cumulative crypt injury and inflammatory scores for each group were determined. The results of Table 12 present the cumulative injury and inflammation scores of colons in mice with DSS-induced colitis.

[2] = test system: TNFα production in THP-1 cells; test: TNFα production assay in LPS-stimulated THP-1 cells; type: cell-based; details: Homo sapiens, 6 hours, ELISA, read-out: IC50 in TNF-α production assay
Method: THP-1 (human monocytic cell line) obtained from ATCC was cultured in RPMI-1640 supplemented with 10% FBS, sodium pyruvate, HEPES, 2-mercaptoethanol, Penicillin/Streptomycin. To a 96-well plate containing THP-1 cells (1.4×10^6/mL, 2.5×10^5 cells/well) in 180 μL RPMI-1640 was added 20 μL of the test compound in 10% DMSO. […] After one hour at 37° C., 20 μL of 1000 ng/mL lipopolysaccharide (LPS from Salmonella typhosa, Sigma) was added to each well. After an additional 6 hours at 37° C., the supernatants were collected following a 5 minute centrifugation of the plate to pellet the cells. The amount of TNFα in these supernatants was then measured using a TNFα-specific ELISA (Pharmingen). […] IC50 values were calculated from the percentage inhibition at various doses.

[3] = test system: ovalbumin-induced inflammatory cell infiltration in the lung; test: Ovalbumin-induced inflammatory cell infiltration into the lung of sensitized mice; type: in vivo, BALB/c mice; details: for Total Inflammatory Cells in BAL: days 14 to 17, BAL on day 18
Method: In the pulmonary inflammation animal model, BALB/c mice were sensitized by an intraperitoneal injection of 0.1 mL alum-precipitated antigen containing 40 μg ovalbumin adsorbed to aluminum hydroxide gel on days 0 and 10. On day 14, animals received intranasal challenge with 100 μg ovalbumin in 50 μl saline (PBS). Mice were injected intraperitoneally with antigen to sensitize the animals prior to intranasal challenge to induce lung inflammation. Administration of the test compound was given on days 14 to 17. On day 18, bronchoalveolar lavage fluid (BAL) was collected for measurements of total inflammatory cell infiltration (eosinophils, monocytes, lymphocytes, and neutrophils).

[4] = test system: transplanted hearts (graft rejection); test: Murine neonatal heart to ear transplants, graft survival; type: in vivo, BALB/c mice
Method: Cardiac transplants were performed as described by Fulmer et al. (Fulmer, R. I. et al. The American Journal of Anatomy 113:273-281, 1963). Neonatal hearts were obtained from newborn C57BL/6 mice not more than 48 hours after birth. The hearts were transplanted into recipient BALB/c mice, which were prepared under anesthesia by making a small incision at the base of the ear pinna and forming a pocket by gently lifting the skin away from the ear. The incision permitted the insertion of the donor heart subcutaneously into the pocket. […] The pulsations of the heart were measured by contractile activity with an appropriate electrocardiogram (ECG) monitoring device. The contractile activity of the transplanted graft was monitored daily. The time of graft rejection was defined as the day after transplantation on which contractile activity ceased. Without therapeutic intervention, the host mounts an immune response to the transplanted heart (i.e., graft rejection). This immune response causes the transplanted heart to cease beating typically 10-14 days post transplantation.
Test compounds were administered in daily doses either alone or in combination with other therapies, such as Cyclosporine A (15 mg/kg, orally, “p.o.”) or CTLA4-Ig (200 μg in 200 μl PBS given intraperitoneally on only days 0, 2, and 4). Table 2 presents the effects of test compounds on median survival time of transplanted hearts, either alone or in combination with Cyclosporine A (CsA). Table 3 presents the effects of test compounds on median survival time of transplanted hearts, either alone or in combination with CTLA4-Ig.

Pharmacokinetics in mice = type: in vivo; details: mouse, plasma, BALB/c mice
Method: Compound 6 was administered to BALB/c mice either per orally (p.o.) or intravenously (i.v.). Blood was drawn at various times (0.5 to 4 hours) after dosing and the plasma drug levels measured by liquid chromatography-mass spectral analysis.

LPS-induced serum TNFα = LPS-induced serum TNFα in mice; type: in vivo, BALB/c mice; details: p.o.
Method: As a measure of activity against NF-κB-dependent TNFα production in vivo, test compounds were administered to BALB/c mice subsequently challenged with an intravenous dose of E. coli LPS (1 μg in 100 μL phosphate-buffered saline). One hour after LPS challenge, blood was collected from the mice and the levels of TNFα in the serum measured by EIA(R&D Systems). Inhibition was calculated from control animals which received LPS challenge with no test compound.

## Cc1ccc2nc(NCCN)c3ncc(C)n3c2c1 [Compound 6, 4(2′-aminoethyl)amino-1,8-dimethylimidazo(1,2-a)quinoxaline]
[1]; established mode, 10 mg/kg, two weeks after disease onset
  Cumulative arthritis injury score (±sem): 4.2 ± 1.0
[1]; established mode, 30 mg/kg p.o., vs vehicle
  disease progression: significantly inhibited disease progression
[1]; established mode, 30 mg/kg, two weeks after disease onset
  Cumulative arthritis injury score (±sem): 2.1 ± 0.9
[1]; established mode, 100 mg/kg p.o.
  disease progression: significant disease resolution
[1]; established mode, 100 mg/kg, two weeks after disease onset
  Cumulative arthritis injury score (±sem): 0.9 ± 0.5
[1]; preventative mode, 10 mg/kg
  Cumulative arthritis injury score (±sem): 5.3 ± 1.7
[1]; preventative mode, 30 mg/kg
  Cumulative arthritis injury score (±sem): 0.4 ± 0.4
[1]; preventative mode, 30 mg/kg p.o. daily
  disease onset: inhibited disease onset
[1]; preventative mode, 30 mg/kg, listed as compound 6, 30 mg/kg
  Cumulative arthritis injury score (±sem): 0.4
[1]; preventative mode, 100 mg/kg
  Cumulative arthritis injury score (±sem): 0.0
[1]; preventative mode, 100 mg/kg daily, vs vehicle
  incidence of disease (FIG. 1): significant difference in incidence of disease
[1]; preventative mode, 100 mg/kg p.o. daily
  disease onset: prevented any disease onset
[1]; preventative mode, 100 mg/kg, listed as compound 6, 100 mg/kg
  Cumulative arthritis injury score (±sem): 0
DSS-induced colitis; 30 mg/kg p.o. daily
  Group Mean Inflammation Histological Score: 7.58 ± 0.81
  Group Mean Injury Histological Score: 4.83 ± 0.55
  Mean clinical score: 1.10 ± 0.49
DSS-induced colitis; 100 mg/kg p.o. daily
  Group Mean Inflammation Histological Score: 6.82 ± 0.85
  Group Mean Injury Histological Score: 5.66 ± 0.87
  Mean clinical score: 1.00 ± 0.35
DSS-induced colitis; daily administration
  clinical and histological score vs untreated mice: statistically significant decrease in clinical and histological score
[2]
  IC50: 4 µM
[3]; 30 mg/kg p.o.
  Total Inflammatory Cells in BAL: 2.8 × 10^6 ± 1.3 × 10^6
[3]; 100 mg/kg p.o.
  Total Inflammatory Cells in BAL: 2.2 × 10^6 ± 0.3 × 10^6
[3]; administration after ovalbumin challenge
  total inflammatory cells in the lungs vs untreated mice: statistically significant decrease in total inflammatory cells in the lungs
[4]; CTLA4-Ig (200 μg i.p. days 0, 2, 4) plus Compound 6 50 mg/kg p.o.
  Median Graft Survival Time: 32 days
[4]; CTLA4-Ig (200 μg i.p. days 0, 2, 4) plus Compound 6 100 mg/kg p.o.
  Median Graft Survival Time: >60 days
[4]; Compound 6 50 mg/kg p.o. alone
  Median Graft Survival Time: 12 days
[4]; Cyclosporine A 15 mg/kg p.o. plus Compound 6 50 mg/kg p.o.
  Median Graft Survival Time: 29 days
[4]; co-administered with cyclosporine A or CTLA4-Ig
  effect of combination with cyclosporine A or CTLA4-Ig on graft survival: synergistic effects
Pharmacokinetics in mice; iv, apparent terminal elimination phase after i.v. dose
  half-life: 7.9 h
Pharmacokinetics in mice; oral, AUC p.o. divided by AUC i.v.
  bioavailability: 100%
LPS-induced serum TNFα; 10 mg/kg
  inhibition of the LPS-induced serum TNFα levels in vivo: 27-63%
LPS-induced serum TNFα; 30 mg/kg
  inhibition of the LPS-induced serum TNFα levels in vivo: 53-89%
LPS-induced serum TNFα; 50 mg/kg
  inhibition of the LPS-induced serum TNFα levels in vivo: 83-92%
